Measured values taken from patent publication US10071110B2, “Phosphonate compounds” (priority 1999, dated 2018).
Read-outs that look alike come from different tables or passages of the source.

Tests used:
[1] = system: MLO-Y4 osteocytic cells; conditions: at 10^−8 to 10^−5 M; 1 hour pretreatment, then 6 hours 10^−4 M dexamethasone
[2] = system: ovariectomized rats; conditions: subcutaneous 0 to 8 mg/kg/day, four to twelve weeks, vs ovariectomized controls
[3] = system: Calvarial cells; test: Dexamethasone-induced apoptosis in calvarial cells, trypan blue; format: cell-based, mice; conditions: pretreatment at 10^−8 or greater for 1 hour, then 6 hours 10^−4 dexamethasone
[4] = system: Human cytomegalovirus (HCMV); test: HCMV antiviral assay, HCMV DNA quantified by DNA hybridization in MRC-5 cells; format: cell-based; conditions: for Selectivity Index: CC50/EC50, Human CMV in MRC-5 (Table 2)
[5] = system: patients with steroid-induced osteoporosis; test: Stimulation of bone formation in humans with steroid-induced osteoporosis; format: in vivo, human; conditions: oral 0.1 to 100 mg/kg/day, one month to one year, vs placebo
[6] = system: HT4-6C cells; test: Cytotoxicity by the method of Hostetler et al. (HIV study); conditions: Table 6
[7] = system: MRC-5 human lung fibroblast cells; test: Cytotoxicity of test compounds in vitro, visual estimate of 50% reduction in cell number; conditions: MRC-5 cells
[8] = system: HSV-1; test: HSV-1 antiviral assay, HSV DNA quantified by nucleic acid hybridization in MRC-5 cells; format: cell-based; conditions: CC50/EC50 (Table 7)
[9] = in vitro; conditions: human
[10] = Cytotoxicity in CEM cells (CC50); format: cell-based; conditions: human; CEM cells (Table 1)
[11] = Cytotoxicity of test compounds in vitro, visual estimate of 50% reduction in cell number; conditions: human, MRC-5 human lung fibroblast cells
[12] = in vitro; conditions: African green monkey
[13] = system: postmenopausal women; conditions: oral 0.1 to 100 mg/kg/day, two to three years, vs placebo
[14] = system: HIV-1; conditions: Human immunodeficiency virus 1, 72 h, read-out: EC50, in HIV-1 plaque reduction assay

Which “effect on dexamethasone-induced apoptosis (percentage of dead cells)” value [1] does the source give for CCCCCCCCCCCCCCCCOCCCOP(=O)(O)C(O)(CCCN)P(=O)(O)O (stereo not drawn) [HDP-alendronate, 1-O-Hexadececylpropanediol-3-alendronate] here?
The value was “inhibits dexamethasone-induced apoptosis”.

And the “bone mass loss (ash weight of the femora)” value [2]?
The value was “less bone mass loss than the ovariectomized controls”.

What about the “effect on dexamethasone-induced increase in % dead cells” value [3] of the same molecule?
The value was “abolished the dexamethasone-induced increase in % dead cells”.

Which “Selectivity Index” value [4] does the source give for CCCCCCCCCCCCCCCCOP1(=O)COC(Cn2ccc(N)nc2=O)CO1 (stereo not drawn) [Hexadecyl-cCDV, hexadecyl-cCDV] here?
The value was 163.

With “1-O-octadecyloxypropyl-amino-olpadronate” as the molecule, how does the bone density [5] read?
Its bone density is “bone density is increased”.

And the fractures [5]?
Its fractures is “fractures are decreased”.

What does the source list for hexadecyloxypropyl-adefovir [HDP-ADV]?
CC50 [6]: 6.5 µM; EC50 ([4]; Human CMV replication in MRC-5 human lung fibroblasts, DNA reduction (Table 2), read-out: EC50): 0.1 µM; EC50 ([4]; preliminary experiments (Table 1), MRC-5 cells, 5 days, read-out: HCMV EC50): 0.01 µM; CC50 ([7]; 5 days (Table 2)): 6.5 µM

Which “Selectivity Index” value [8] does the source give for CCCCCCCCCCCCCCCCCCOCCOP(=O)(O)COC(CO)Cn1ccc(N)nc1=O (stereo not drawn) [1-O-octadecylethanediol-2-CDV] here?
Its value is 105,000.

For Nc1ccn(C[C@H]2COP(=O)(O)CO2)c(=O)n1 [cCDV, cyclic cidofovir], which CC50 [9] is on record?
Its CC50 is > 100 µM.

And the CC50 [10]?
Its CC50 is > 1000 µM.

And the CC50 at 5 days [11]?
The CC50 at 5 days was > 1000 µM.

What about the CC50 ([7]; as in Example 17 (Table 7)) of the same molecule?
Its CC50 is > 1000 µM.

What about the CC50 [12] of the same molecule?
Its CC50 is > 100 µM.

What does the source list for CCCCCCCCCCCCCCCCCCOCCOP1(=O)COC(Cn2ccc(N)nc2=O)CO1 (stereo not drawn) [1-O-octadecylethanediol-2-cCDV]?
Selectivity Index [8]: 40,000; Selectivity Index [4]: 1 × 10^6

With CCCCCCCCCCCCCCCCCCOCCCOP(=O)(O)CO[C@H](CO)Cn1ccc(N)nc1=O [1-O-octadecylpropanediol-3-CDV] as the molecule, how does the “Selectivity Index” value [4] read?
The value was 1 × 10^6.

Which CC50 [9] does the source give for Nc1ccn(C[C@@H](CO)OCP(=O)(O)O)c(=O)n1 [CDV, cidofovir] here?
The CC50 was 89.8 µM.

And the CC50 [10]?
The CC50 was 857 µM.

What about the CC50 at 5 days [11] of the same molecule?
The CC50 at 5 days was > 1000 µM.

And the CC50 ([7]; as in Example 17 (Table 7))?
Its CC50 is > 1000 µM.

What about the CC50 [12] of the same molecule?
The CC50 was > 100 µM.

For CCCCCCCCCCCCCCCCOCCCOP(=O)(O)CO[C@H](CO)Cn1ccc(N)nc1=O [HDP-CDV], which “Selectivity Index” value [4] is on record?
Its value is 5 × 10^6.

With CCCCCCCCCCCCCCCCCCOCCCOP(=O)(O)C(O)(CCCN)P(=O)(O)O (stereo not drawn) [1-O-octadecyloxypropyl alendronate, 1-O-octadecyloxypropyl-alendronate] as the molecule, how does the fractures [13] read?
Its fractures is “fewer fractures”.

What about the “rate of reduction in bone density” value [13] of the same molecule?
The value was “lesser rate of reduction in bone density than the placebo group”.

With Cc1cn([C@H]2C[C@H](N=[N+]=[N-])[C@@H](CO)O2)c(=O)[nH]c1=O [AZT, zidovudine] as the molecule, how does the EC50 [14] read?
Its EC50 is 0.007 µM.

Which “Selectivity Index” value [8] does the source give for CCCCCCCCCCCCCCCCCCOCCCOP1(=O)COC(Cn2ccc(N)nc2=O)CO1 (stereo not drawn) [1-O-octadecylpropanediol-3-cCDV] here?
Its value is 970.

And the “Selectivity Index” value [4]?
Its value is 1 × 10^6.
